Results from patent publication US7919465B2, “Peptide mimotopes that inhibits interaction between a platelet receptor and a platelet receptor ligand” (priority 2006, dated 2011).
Like-named read-outs stand apart in the source and are kept apart here. Non-standard residues stand in square brackets, D forms with d. No end group written: not given here.

Key:
GPIb-vWf interaction = target: T1, GPIb-vWf interaction (Homo sapiens, UniProt P07359); test: Flow cytometry inhibition of vWf binding to ristocetin-activated platelets in PRP; type: cell-based
T1 construct: Platelet rich plasma (PRP) was prepared from whole blood by centrifugation; endogenous in cells
Method: (§1) In order to prepare human platelets for testing, as approved by Canadian Blood Services' Ethics Board, samples of whole blood were drawn from healthy, consenting donors into 2.7-4.0 mL citrated tubes (BD, USA). Platelet rich plasma (PRP) was prepared from whole blood by centrifugation in a Beckman (CS-6R) bench-top centrifuge (r=203.57 mm, Beckman Coulter, USA) 164×g for 15 minutes. PRP from a number of unrelated donors were evaluated on an Adiva 120 Hematology Analyzer (Bayer, Canada) and standardized to a concentration of 300×10^9 platelets/L in HEPES buffered saline (HBS, 10 mM HEPES, 150 mM NaCl, pH 7.4).
Thereafter the samples were diluted and fixed with 1.0 mL 0.2% formolsaline (0.2% formaldehyde, 150 mM NaCl, pH 7.20) before analysis on a FACS Canto flow cytometer (BD, USA).
The effect of native HPG, free peptides, and peptide-conjugated HPG on activated platelets using modifications of the above assay systems was also examined. Platelets were treated with either 5 μL 4.2 mg/mL ristocetin (Chrono-Log, USA) or 100 U thrombin (T6884, Sigma-Aldrich, Canada) with 5 μL GPRP fibrin inhibitor (G5779, Sigma-Aldrich, Canada) dissolved in HBS. […] Controls included incubation with mouse IgG-FITC/IgG-PE (Beckman-Coulter, Canada) of the same isotype, and/or omitting the conjugate.

platelets = test: Aggregometry, % aggregation on activation; type: cell-based, human; set-up: concentration or dose not given beside the values; details: ristocetin activation
Method: as §1
(§2) The effect of native HPG, free peptides, and peptide-conjugated HPG on activated platelets using modifications of the above assay systems was also examined. Platelets were treated with either 5 μL 4.2 mg/mL ristocetin (Chrono-Log, USA) or 100 U thrombin (T6884, Sigma-Aldrich, Canada) with 5 μL GPRP fibrin inhibitor (G5779, Sigma-Aldrich, Canada) dissolved in HBS. This was done to determine whether the peptides and the peptide-conjugates can mitigate vWf and thrombin mediated platelet effects. Controls included incubation with mouse IgG-FITC/IgG-PE (Beckman-Coulter, Canada) of the same isotype, and/or omitting the conjugate. As a result, native HPG, free peptides, and peptide-conjugated HPG neither did they increase vWf binding to resting platelets (Table 5) or they could trigger platelet activation.
The inhibition of platelet agglutination by vWf was observed both by light microscopy and lumiaggregometry (Table 5). No clumping was seen when resting platelets were incubated with free peptides, native HPG, or peptide-conjugated HPG.

[1] = test system: CD62/P-selectin on platelet surfaces; test: Flow cytometry of surface CD62 expression on platelets; type: cell-based, human; details: for Surface CD62 Expression, Activated Platelets: thrombin-activated platelets
Method: as §1
(§3) 40 μL aliquots of HBS were mixed with 5 μL PRP and 5 μL of the material to be tested: 500 kDa native HPG; free peptides; or peptide-conjugated HPG at 1.0×10^−3 M to 1.0×10^−9 M. After 40 minutes of incubation at ambient temperature, 5 μL 0.01 mg/mL FITC-conjugated polyclonal sheep anti-human vWf IgG (Abcam, USA) or 5 μL of 2 mg/mL PE-conjugated monoclonal mouse anti-human CD62 IgG (Beckman-Coulter, Canada) was added and incubation was continued in the dark for 30 min. Thereafter the samples were diluted and fixed with 1.0 mL 0.2% formolsaline (0.2% formaldehyde, 150 mM NaCl, pH 7.20) before analysis on a FACS Canto flow cytometer (BD, USA).
as §2, with “activation. […]” for “activation.”

[2] = test system: vWf binding to resting platelets; test: Flow cytometry of vWf binding to resting platelets; type: cell-based, human
Method: as §1, §3, §2

GPIIbIIIa = test: Ristocetin-mediated GPIIbIIIa activation probed by PAC-1 antibody, flow cytometry; type: cell-based, human; details: at IC50 concentration, 60 minutes, PAC-1, p<0.05
Method: To show inhibition of the GPIb-vWf interaction in PRP, activation had to target the plasma component, specifically vWf, by ristocetin, rather than the consequences of platelet activators such as thrombin or ADP. Ristocetin mediated GPIb signaling was detected through GPIIbIIIa activation and flow cytometry. 5 μL resting PRP were incubated with […] (SEQ ID NO:8) or L100 at their respective IC50 concentrations for 60 minutes and 5 μL 4.2 mg/mL ristocetin was used to induce platelet activation. Consequent GPIIbIIIa activation was probed via a monoclonal FITC-conjugated PAC-1 antibody to the active conformation of GPIIbIIIa (BD, Canada).

fibrinogen = target: T2, fibrinogen (Homo sapiens, UniProt P02671+P02675+P02679); test: Binding of D-amino acid-containing sequences to fibrinogen
T2 sequence (P02671 20-629 limits assumed): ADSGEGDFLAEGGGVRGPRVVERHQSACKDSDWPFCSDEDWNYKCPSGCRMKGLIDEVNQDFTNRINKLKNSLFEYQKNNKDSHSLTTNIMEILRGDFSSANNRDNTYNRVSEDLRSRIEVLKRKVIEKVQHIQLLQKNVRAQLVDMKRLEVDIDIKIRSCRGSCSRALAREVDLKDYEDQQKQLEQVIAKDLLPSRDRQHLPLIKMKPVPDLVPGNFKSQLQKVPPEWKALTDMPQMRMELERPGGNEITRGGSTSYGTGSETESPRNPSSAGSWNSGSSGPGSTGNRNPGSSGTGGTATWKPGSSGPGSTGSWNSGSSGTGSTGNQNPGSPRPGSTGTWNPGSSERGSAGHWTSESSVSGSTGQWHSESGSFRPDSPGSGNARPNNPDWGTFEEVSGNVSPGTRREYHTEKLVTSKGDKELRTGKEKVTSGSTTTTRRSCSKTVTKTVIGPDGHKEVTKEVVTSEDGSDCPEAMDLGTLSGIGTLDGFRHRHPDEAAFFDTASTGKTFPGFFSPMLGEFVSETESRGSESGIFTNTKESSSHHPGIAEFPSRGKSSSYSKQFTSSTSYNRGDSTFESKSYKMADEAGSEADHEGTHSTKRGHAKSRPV
T2 sequence (P02675 31-491): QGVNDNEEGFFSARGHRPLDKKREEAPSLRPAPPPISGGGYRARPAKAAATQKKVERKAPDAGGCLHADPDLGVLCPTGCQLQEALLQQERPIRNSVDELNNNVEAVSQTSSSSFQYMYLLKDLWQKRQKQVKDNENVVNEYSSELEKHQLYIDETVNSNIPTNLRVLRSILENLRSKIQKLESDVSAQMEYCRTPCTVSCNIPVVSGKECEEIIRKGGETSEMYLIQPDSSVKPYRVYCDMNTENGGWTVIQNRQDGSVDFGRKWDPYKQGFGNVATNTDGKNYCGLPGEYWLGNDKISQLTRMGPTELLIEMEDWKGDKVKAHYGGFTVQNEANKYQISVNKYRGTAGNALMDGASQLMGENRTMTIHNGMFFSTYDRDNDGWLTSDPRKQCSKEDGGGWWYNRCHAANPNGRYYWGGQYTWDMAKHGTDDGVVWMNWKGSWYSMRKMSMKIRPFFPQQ
T2 sequence (P02679 27-433 limits assumed): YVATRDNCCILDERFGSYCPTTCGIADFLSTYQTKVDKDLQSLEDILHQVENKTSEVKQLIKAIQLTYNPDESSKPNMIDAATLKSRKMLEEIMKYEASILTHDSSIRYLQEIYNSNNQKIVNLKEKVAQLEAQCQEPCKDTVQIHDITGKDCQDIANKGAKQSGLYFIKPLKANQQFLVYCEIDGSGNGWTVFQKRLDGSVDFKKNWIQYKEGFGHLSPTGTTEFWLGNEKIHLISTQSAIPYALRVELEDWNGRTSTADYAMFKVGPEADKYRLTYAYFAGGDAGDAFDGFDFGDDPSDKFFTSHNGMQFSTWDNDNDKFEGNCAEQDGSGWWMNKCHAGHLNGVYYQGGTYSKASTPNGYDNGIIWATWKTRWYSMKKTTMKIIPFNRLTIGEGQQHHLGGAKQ
Text: These peptides can be used to pull/capture fibrinogen from a solution as well as to inhibit the interaction between fibrinogen and its cognate receptor(s).

Substance	Surface CD62 Expression, Resting Platelets [1]	Surface CD62 Expression, Activated Platelets [1]	vWf Binding, Resting Platelets [2]	GPIIbIIIa activation upon ristocetin stimulation (GPIIbIIIa)	ability to bind to fibrinogen (fibrinogen)	also measured
CGGGGGGSHAYIGLKDR [L-pep]	18 ± 1	72 ± 8″	24 ± 4′	significantly attenuated		IC50 (GPIb-vWf interaction): 48 µM; Aggregometry % Aggregation on Activation (platelets): 5 ± 5%
FKWSWEWQGQEAYYD ([dF][dK][dW][dS][dW][dE][dW][dQ]G[dQ][dE][dA][dY][dY][dD])					bind to fibrinogen	
FRIYYVYTTSQQDSC ([dF][dR][dI][dY][dY][dV][dY][dT][dT][dS][dQ][dQ][dD][dS][dC])					bind to fibrinogen	
KYQCYAPAHPSYVNY (also: D-amino acids, places not given here)					bind to fibrinogen	
L100: HPG 500 kDa conjugate with about 100 L-peptides per HPG molecule (CGGGGGGSHAYIGLKDR; also: conjugated to HPG 500 kDa, about 100 L-peptides per HPG molecule, site not given here)	20 ± 3	71 ± 5″	23 ± 2′	significantly attenuated		inhibition of vWf binding to platelets (in words) (GPIb-vWf interaction): effective inhibitors; IC50 (GPIb-vWf interaction; expressed as peptide concentration, read-out: Peptide Concentration at Ic50): 210 µM; IC50 (GPIb-vWf interaction; inhibition of platelet-vWf binding, molar concentration of peptide or conjugate, read-out: Ic50): 1.1 µM
SMTSMCYLIGAPKYK (also: D-amino acids, places not given here)					bind to fibrinogen	
